In brackets after ≈: the same amount, converted by molar mass. Entries after “also recorded” stand apart in the source; their conditions may differ. Where two headings read alike, the source gives them in different places.
Assays:
E. coli ΔtolC = format: cell-based
E. coli ACC = E. coli ACC (Escherichia coli, UniProt P0A9Q5+P0ABD5+P24182); assay: ACC activity fluorescence polarization assay; format: biochemical; details: for Ki: Ki (apparent, Morrison equation), tight binding inhibitors (IC50 < 0.5 nM), fluorescence polarization assay; for IC50: IC50, fluorescence polarization assay, triplicate, ± SD
ACC complex = ACC complex (Escherichia coli, UniProt P0A9Q5+P0ABD5+P24182); assay: Spin-column LC-MS/MS competition assay; format: binding, E. coli; details: for dissociation from ACC with 1 and 3 together: 50 μM of 1 and 3 together added to ACC-inhibitor complex; for dissociation from ACC with 1 alone: 100 μM of 1 alone added to ACC-inhibitor complex
[1] = literature antibacterial activity, strain not stated; cited from earlier work

Chain of ACC complex (P0A9Q5 whole entry): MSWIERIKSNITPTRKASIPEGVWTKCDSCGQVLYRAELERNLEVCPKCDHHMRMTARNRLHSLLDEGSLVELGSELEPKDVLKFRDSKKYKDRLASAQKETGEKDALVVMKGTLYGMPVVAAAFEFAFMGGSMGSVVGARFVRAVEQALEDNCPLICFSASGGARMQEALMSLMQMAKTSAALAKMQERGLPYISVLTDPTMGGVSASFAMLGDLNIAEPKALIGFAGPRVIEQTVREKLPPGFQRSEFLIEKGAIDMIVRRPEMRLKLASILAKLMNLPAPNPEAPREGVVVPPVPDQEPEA
Chain of ACC complex (P0ABD5 whole entry): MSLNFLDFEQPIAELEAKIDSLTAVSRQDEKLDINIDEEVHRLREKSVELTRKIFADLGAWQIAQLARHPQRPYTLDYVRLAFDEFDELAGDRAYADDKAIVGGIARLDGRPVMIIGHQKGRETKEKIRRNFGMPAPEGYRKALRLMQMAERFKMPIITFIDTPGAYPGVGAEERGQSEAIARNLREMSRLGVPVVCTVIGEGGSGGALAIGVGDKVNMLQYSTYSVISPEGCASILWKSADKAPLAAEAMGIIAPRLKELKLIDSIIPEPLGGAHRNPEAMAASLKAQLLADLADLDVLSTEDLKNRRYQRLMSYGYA
Chain of E. coli ACC (P0ABD5 whole entry): as above
Chain of E. coli ACC (P0A9Q5 whole entry): as the sequence (P0A9Q5 whole entry) above

## C#CCCCCOCCOCCOCCOCCOCCOCCOCCOCCOCCOCCOCCOCCOc1ccc(Br)c(-c2cc3cnc(N)nc3nc2N)c1Br [Compound 9e, 6-(2,6-dibromo-3-(3,6,9,12,15,18,21,24,27,30,33,36-dodecaoxadotetracont-41-yn-1-yloxy)phenyl)pyrido[2,3-d]pyrimidine-2,7-diamine]
E. coli ΔtolC; PMBN 6 μM (8 μg/mL)
  MIC ΔtolC + PMBN: 12.5 µM

## CC(C)[C@H](NC(=O)C[C@H](NC(=O)CCCCCCCCCCn1cc(CCCCOCCOCCOCCOCCOCCOCCOc2cc(Br)c(-c3cc4cnc(N)nc4nc3N)c(Br)c2)nn1)c1ccccc1)C(=O)[C@@H]1C(=O)NC(=O)[C@H]1C [Compound 17-p, 11-(4-(22-(3,5-dibromo-4-(2,7-diaminopyrido[2,3-d]pyrimidin-6-yl)phenoxy)-5,8,11,14,17,20-hexaoxadocos-1-yl)-1H-1,2,3-triazol-1-yl)-N-((1S)-3-(((2S)-3-methyl-1-((3R,4S)-4-methyl-2,5-dioxopyrrolidin-3-yl)-1-oxobutan-2-yl)amino)-3-oxo-1-phenylpropyl)undecanamide]
E. coli ACC
  Ki: 3.53 nM

## C#CCCCCOCCOCCOCCOCCOCCOCCOc1cc(Br)c(-c2cc3cnc(N)nc3nc2N)c(Br)c1 [Compound 9c-p, 6-(2,6-dibromo-4-(3,6,9,12,15,18-hexaoxatetracos-23-yn-1-yloxy)phenyl)pyrido[2,3-d]pyrimidine-2,7-diamine]
E. coli ACC
  IC50: > 500 nM

## CC(C)[C@H](NC(=O)C[C@H](NC(=O)CCCCCCCCCCn1cc(CCCCOc2ccc(Br)c(-c3cc4cnc(N)nc4nc3N)c2Br)nn1)c1ccccc1)C(=O)[C@@H]1C(=O)NC(=O)[C@H]1C [Compound 15, 11-(4-(4-(2,4-dibromo-3-(2,7-diaminopyrido[2,3-d]pyrimidin-6-yl)phenoxy)butyl)-1H-1,2,3-triazol-1-yl)-N-((1S)-3-(((2S)-3-methyl-1-((3R,4S)-4-methyl-2,5-dioxopyrrolidin-3-yl)-1-oxobutan-2-yl)amino)-3-oxo-1-phenylpropyl)undecanamide]
ACC complex
  dissociation from ACC with 1 and 3 together: rapid dissociation
  dissociation from ACC with 1 alone: little or no dissociation

## C/C=C/C=C/C(=O)N[C@@H](CC(=O)N[C@H](C(=O)[C@@H]1C(=O)NC(=O)[C@H]1C)C(C)C)c1ccccc1 [Compound 3, moiramide B, reference compound]
E. coli ACC
  IC50: 5 nM

## CC(C)[C@H](NC(=O)C[C@H](NC(=O)CCCCCCCCCCn1cc(CCCCOCCOCCOCCOCCOCCOCCOc2ccc(Br)c(-c3cc4cnc(N)nc4nc3N)c2Br)nn1)c1ccccc1)C(=O)[C@@H]1C(=O)NC(=O)[C@H]1C [Compound 17, 11-(4-(22-(2,4-dibromo-3-(2,7-diaminopyrido[2,3-d]pyrimidin-6-yl)phenoxy)-5,8,11,14,17,20-hexaoxadocos-1-yl)-1H-1,2,3-triazol-1-yl)-N-((1S)-3-(((2S)-3-methyl-1-((3R,4S)-4-methyl-2,5-dioxopyrrolidin-3-yl)-1-oxobutan-2-yl)amino)-3-oxo-1-phenylpropyl)undecanamide]
ACC complex
  dissociation from ACC with 1 and 3 together: rapid dissociation
ACC complex; 100 μM (100-fold excess) of 1 or 3 alone added to ACC-inhibitor complex
  dissociation from ACC with 1 or 3 alone: unable to displace; also recorded: No dissociation
E. coli ΔtolC; PMBN included
  MIC ΔtolC + PMBN: 0.5 µg/mL
E. coli ΔtolC; without PMBN
  MIC ΔtolC: 4 µg/mL (≈ 3.02 µM)
E. coli ACC
  Ki: 0.2 nM

## Nc1ncc(C(=O)N(Cc2ccccc2)Cc2ccccc2)o1 [Compound 2]
[1]
  MIC: > 64 µg/mL

## CC(C)[C@H](NC(=O)C[C@H](NC(=O)CCCCCCCCCCn1cc(CCCCOCCOCCOCCOc2ccc(Br)c(-c3cc4cnc(N)nc4nc3N)c2Br)nn1)c1ccccc1)C(=O)[C@@H]1C(=O)NC(=O)[C@H]1C [Compound 16, 11-(4-(4-(2-(2-(2-(2,4-dibromo-3-(2,7-diaminopyrido[2,3-d]pyrimidin-6-yl)phenoxy)ethoxy)ethoxy)ethoxy)butyl)-1H-1,2,3-triazol-1-yl)-N-((1S)-3-(((2S)-3-methyl-1-((3R,4S)-4-methyl-2,5-dioxopyrrolidin-3-yl)-1-oxobutan-2-yl)amino)-3-oxo-1-phenylpropyl)undecanamide]
ACC complex
  dissociation from ACC with 1 and 3 together: rapid dissociation
  dissociation from ACC with 1 alone: little or no dissociation
